Experimental data from patent publication US6410533B1, “Antibacterial compounds” (Genzyme Corporation, priority 2000, dated 2002).
pIC50: −log10 of the molar value. Converted amounts (≈) assume the structure as drawn. Where two headings read alike, the source gives them in different places.

Experiments:
[1] = test system: Staphylococcus aureus bacteria (ATCC 9604 SV); experiment: IC50 determination, growth inhibition by turbidity at 550 nm; type: cell-based; conditions: Staphylococcus aureus ATCC 9604 SV, turbidity at 550 nm after 3-5 h at 37° C.
Summary of the method: (§1)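 MIC: broth microdilution per NCCLS in Mueller-Hinton broth; overnight culture adjusted to 0.05 McFarland and diluted twenty-fold into compound-containing broth. IC50: inoculum at 0.1 McFarland diluted two-fold into TB broth with compound, 3–5 h at 37° C. Turbidity at 550 nm; IC50 is the concentration giving 50% growth inhibition.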

[2] = test system: methicillin-resistant Staphylococcus aureus (ATCC 33591); experiment: In vivo mouse intraperitoneal infection, mortality and % survivors over 7 days; conditions: MRSA ATCC 33591 i.p., ICR mice; for In Vivo, single dose (% of mice rescued): single dose 1 h post inoculation; for In Vivo, double dose (% of mice rescued): 1 and 5 h post inoculation
Summary of the method: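 Survival and mortality were scored for 7 days after i.p. challenge of 20 g male ICR mice (n=10) with an LD90-100 inoculum (2-3×10^7 CFU/mouse) of MRSA ATCC 33591 in 5% mucin. Treatment was subcutaneous in 1% cremophore EL/saline, either once at 1 h or twice at 1 h and 5 h.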

[3] = test system: Staphylococcus aureus bacteria (ATCC 9604 SV); experiment: Minimal inhibitory concentration (MIC), broth microdilution; type: cell-based; conditions: 24 h at 37° C.
Summary of the method: as §1

[4] = Staphylococcus aureus ATCC 9604 SV
[5] = ATCC9604, Staphylococcus aureus ATCC 9604 SV, read-out: MIC

SMILES	pIC50 [1]	In Vivo, single dose (% of mice rescued) ([2]; 2 mg/kg s.c.) [% @ 2 mg/kg]	In Vivo, single dose (% of mice rescued) ([2]; 20 mg/kg s.c.) [% @ 20 mg/kg]	MIC [3, 4] [µg/mL]	pIC50 ([1]; ATCC9604)	In Vivo, double dose (% of mice rescued) ([2]; 2 × 2 mg/kg s.c.) [% @ 2 × 2 mg/kg]	In Vivo, double dose (% of mice rescued) ([2]; 2 × 20 mg/kg s.c.) [% @ 2 × 20 mg/kg]	MIC [3, 5] [µg/mL]	In Vivo, single dose (% of mice rescued) ([2]; 40 mg/kg s.c.) [% @ 40 mg/kg]	In Vivo, single dose (% of mice rescued) ([2]; 80 mg/kg s.c.) [% @ 80 mg/kg]	In Vivo, single dose (% of mice rescued) ([2]; 160 mg/kg s.c.) [% @ 160 mg/kg]
O=C(Nc1cc(Cl)cc(Cl)c1)Nc1cc(-c2ccccc2)nn1-c1ccc(Cl)cc1 [Compound 91]	6.83	0	0	>22.9	–	–	–	–	–	–	–
O=C(Nc1cc(C(F)(F)F)cc(C(F)(F)F)c1)Nc1cc(CO)nn1-c1ccc(Br)cc1 [Compound 99, 1-(3,5-Bis-trifluoromethyl-phenyl)-3-[2-(4-bromo-phenyl)-5-hydroxymethyl-2H-pyrazol-3-yl]-urea]	–	–	–	–	5.37	33	33	6.54 (≈ 12.5 µM)	–	–	–
COCCN(CCOC)Cc1cc(NC(=O)Nc2cc(C(F)(F)F)cc(C(F)(F)F)c2)n(-c2ccc(Br)cc2)n1 [Compound 103]	5.81	25	25	16.0 (≈ 25.1 µM)	–	0	33	–	–	–	–
Cc1cc(NC(=O)Nc2cc(Cl)cc(Cl)c2)n(-c2ccc(Br)cc2)n1 [Compound 96]	6.01	0	25	>22.0	–	–	–	–	–	–	–
O=C(Nc1cc(Cl)cc(Cl)c1)Nc1cc(-c2cccs2)nn1-c1ccc(C(F)(F)F)cc1 [Compound 84]	6.87	0	0	6.22 (≈ 12.5 µM)	–	–	–	–	–	–	–
O=C(Nc1cc(C(F)(F)F)cc(C(F)(F)F)c1)Nc1cc(-c2ccccc2)nn1CC(F)(F)F [Compound 121]	7.08	0	0	<1.49	–	–	–	–	–	–	–
Cc1cc(NC(=O)Nc2cc(C(F)(F)F)cc(C(F)(F)F)c2)n(-c2ccc(Br)cc2)n1 [Compound 95, 1-(3,5-Bis-trifluoromethyl-phenyl)-3-[2-(4-bromo-phenyl)-5-methyl-2H-pyrazol-3-yl]-urea]	–	25	25	–	6.57	–	–	< 0.761	–	–	–
O=C(Nc1cc(Cl)cc(Cl)c1)Nc1cc(-c2ccccc2)nn1-c1ccc(Br)cc1 [Compound 107]	6.92	25	12.5	6.28 (≈ 12.5 µM)	–	0	17	–	10	10	5
O=C(Nc1cc(C(F)(F)F)cc(C(F)(F)F)c1)Nc1cc(CN2CCOCC2)nn1-c1ccc(C(F)(F)F)cc1 [Compound 89]	6.67	0	0	>29.1	–	–	–	–	–	–	–
O=C(Nc1cc(C(F)(F)F)cc(C(F)(F)F)c1)Nc1nc(-c2ccc(F)c(F)c2)cs1 [Compound 151]	6.88	0	0	1.40 (≈ 3 µM)	–	–	–	–	–	–	–
CCOC(=O)c1cc(NC(=O)Nc2cc(C(F)(F)F)cc(C(F)(F)F)c2)n(-c2ccc(Br)cc2)n1 [Compound 98]	5.51	–	–	>14.1	–	0	33	–	–	–	–
O=C(Nc1cc(Cl)cc(Cl)c1)Nc1ccnn1-c1ccc(Br)cc1 [Compound 93]	6.86	0	25	<0.639	–	–	–	–	–	–	–
CCOC(=O)c1cnn(-c2ccc(Br)cc2)c1NC(=O)Nc1cc(C(F)(F)F)cc(C(F)(F)F)c1 [Compound 94]	6.58	0	0	<0.848	–	–	–	–	–	–	–
O=C(Nc1cc(C(F)(F)F)cc(C(F)(F)F)c1)Nc1cc(-c2ccco2)nn1-c1ccc(Br)cc1 [Compound 113]	6.82	25	0	<0.839	–	–	–	–	–	–	–
O=C(Nc1cc(C(F)(F)F)cc(C(F)(F)F)c1)Nc1cc(-c2ccncc2)nn1-c1ccc(C(F)(F)F)cc1 [Compound 87]	6.67	25	25	1.68 (≈ 3 µM)	–	0	17	–	–	–	–
O=C(Nc1cc(C(F)(F)F)cc(C(F)(F)F)c1)Nc1cc(-c2cccs2)nn1-c1ccc(Br)cc1 [Compound 109]	6.81	25	25	<0.863	–	–	–	–	–	–	–
